The results in this text go back to ChEMBL document CHEMBL1155084 (J Med Chem, 2008).

The nature of data set [1]: Inhibition of p38 MAPK.
The test system of data set [2] is Blood. Nature of the data set: Inhibition of TNFalpha release in human whole blood. The class given is functional, tissue-based.
Data set [3] is filed under the species Homo sapiens. Briefly: Inhibition of human CAMK2 at 10 uM.
Data set [4] has as its target RAF proto-oncogene serine/threonine-protein kinase (Homo sapiens) (UniProt P04049). Nature of the data set: Inhibition of human c-RAF at 10 uM.
For data set [5], the target named is Mitogen-activated protein kinase 3 (Homo sapiens) (UniProt P27361). Nature of the data set: Inhibition of human ERK1 at 10 uM.
For data set [6], the species on record is Homo sapiens. Briefly: Inhibition of human JNK1-alpha-1/SAPK1c at 10 uM.
The target in data set [7] is Dual specificity mitogen-activated protein kinase kinase 1 (Homo sapiens) (UniProt Q02750). Briefly: Inhibition of human MEK1 at 10 uM.
The target of data set [8] is Mitogen-activated protein kinase 9 (Homo sapiens) (UniProt P45984). Nature of the data set: Inhibition of human JNK2alpha2 at 10 uM.
Data set [9] concerns the target Mitogen-activated protein kinase 10 (Homo sapiens) (UniProt P53779). Briefly: Inhibition of human JNK3 at 10 uM.
For data set [10], the species on record is Homo sapiens. Nature of the data set: Inhibition of human PKA at 10 uM.
The target in data set [11] is Protein kinase C alpha type (Homo sapiens) (UniProt P17252). Nature of the data set: Inhibition of human PKCalpha at 10 uM.
In data set [12] the target is RAC-alpha serine/threonine-protein kinase (Homo sapiens) (UniProt P31749). Briefly: Inhibition of human PKBalpha at 10 uM.
The target in data set [13] is Glycogen synthase kinase-3 beta (Homo sapiens) (UniProt P49841). Briefly: Inhibition of human GSK3-beta at 10 uM.
The target of data set [14] is Rho-associated protein kinase 2 (Homo sapiens) (UniProt O75116). Briefly: Inhibition of human ROCK2 at 10 uM.
Data set [15] concerns the target Tyrosine-protein kinase Lck (Homo sapiens) (UniProt P06239). Briefly: Inhibition of human LCK at 10 uM.
In a further data set the target is T1, CYP1A2 (Homo sapiens, UniProt P05177).
T1 sequence (P05177 whole entry): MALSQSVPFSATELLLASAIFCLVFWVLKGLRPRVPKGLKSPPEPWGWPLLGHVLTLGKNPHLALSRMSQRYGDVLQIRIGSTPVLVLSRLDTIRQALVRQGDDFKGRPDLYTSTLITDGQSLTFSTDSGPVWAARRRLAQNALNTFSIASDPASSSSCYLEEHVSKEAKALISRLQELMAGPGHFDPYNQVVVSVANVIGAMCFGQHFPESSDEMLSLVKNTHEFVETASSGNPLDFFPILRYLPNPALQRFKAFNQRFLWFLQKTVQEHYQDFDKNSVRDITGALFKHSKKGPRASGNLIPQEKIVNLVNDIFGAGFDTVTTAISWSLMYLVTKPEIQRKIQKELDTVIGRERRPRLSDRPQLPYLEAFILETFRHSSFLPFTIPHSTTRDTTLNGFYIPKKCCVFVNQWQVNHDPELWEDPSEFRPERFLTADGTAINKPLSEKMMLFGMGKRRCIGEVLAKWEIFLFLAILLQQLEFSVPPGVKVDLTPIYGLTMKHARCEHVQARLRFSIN
Nature of the data set: Inhibition of CYP1A2 at 10 uM. It is filed as ADME.

The next data set deals with CYP2C9 (Homo sapiens, UniProt P11712). Nature of the data set: Inhibition of CYP2C9 at 10 uM. It is filed as ADME.
In a further data set the target is CYP2C19 (Homo sapiens, UniProt P33261). Briefly: Inhibition of CYP2C19 at 10 uM. It is filed as ADME.
The next data set concerns the target CYP2D6 (Homo sapiens, UniProt P10635). Nature of the data set: Inhibition of CYP2D6 at 10 uM. The class given is ADME.
In another data set the target is CYP3A4 (Homo sapiens, UniProt P08684). Briefly: Inhibition of CYP3A4 at 10 uM. It is filed as ADME.
Data set [16] concerns the target T2, Mitogen-activated protein kinase 14 (Homo sapiens, UniProt Q16539). Briefly: Inhibition of p38alpha.
Data set [17] deals with T2, Mitogen-activated protein kinase 14. The conditions noted are these: at 10 µM.
In data set [18] the target is Mitogen-activated protein kinase 1 (Homo sapiens) (UniProt P28482). Briefly: Inhibition of human MAPK2/ERK2 at 10 uM.
The subject of data set [19] is Blood. Briefly: Inhibition of IL1-beta release in human whole blood. It is filed as functional, tissue-based.

By IC50 is commonly meant the concentration at which inhibition is half-maximal. A low value points to inhibition by little substance. Usually inhibition stands for the drop in the measured response relative to a control, in per cent. A high value points to a response far below the control.

Chain of RAF proto-oncogene serine/threonine-protein kinase (Homo sapiens) (P04049 whole entry): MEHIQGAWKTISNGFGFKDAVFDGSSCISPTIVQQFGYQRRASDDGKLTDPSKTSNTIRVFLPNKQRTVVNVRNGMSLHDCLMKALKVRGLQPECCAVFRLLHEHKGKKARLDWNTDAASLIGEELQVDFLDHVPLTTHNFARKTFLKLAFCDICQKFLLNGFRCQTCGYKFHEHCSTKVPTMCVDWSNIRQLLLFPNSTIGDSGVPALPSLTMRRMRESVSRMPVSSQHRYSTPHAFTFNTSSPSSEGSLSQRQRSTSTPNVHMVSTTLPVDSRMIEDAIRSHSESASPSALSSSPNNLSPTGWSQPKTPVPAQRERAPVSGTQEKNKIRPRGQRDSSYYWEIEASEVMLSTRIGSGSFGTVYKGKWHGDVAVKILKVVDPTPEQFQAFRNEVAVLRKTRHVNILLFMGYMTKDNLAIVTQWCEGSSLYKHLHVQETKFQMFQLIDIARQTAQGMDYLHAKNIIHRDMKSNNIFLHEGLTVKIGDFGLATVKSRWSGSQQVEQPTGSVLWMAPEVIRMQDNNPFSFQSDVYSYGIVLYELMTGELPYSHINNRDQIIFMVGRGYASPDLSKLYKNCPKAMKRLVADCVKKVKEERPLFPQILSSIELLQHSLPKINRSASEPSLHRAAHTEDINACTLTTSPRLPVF
Chain of Dual specificity mitogen-activated protein kinase kinase 1 (Homo sapiens) (Q02750 whole entry): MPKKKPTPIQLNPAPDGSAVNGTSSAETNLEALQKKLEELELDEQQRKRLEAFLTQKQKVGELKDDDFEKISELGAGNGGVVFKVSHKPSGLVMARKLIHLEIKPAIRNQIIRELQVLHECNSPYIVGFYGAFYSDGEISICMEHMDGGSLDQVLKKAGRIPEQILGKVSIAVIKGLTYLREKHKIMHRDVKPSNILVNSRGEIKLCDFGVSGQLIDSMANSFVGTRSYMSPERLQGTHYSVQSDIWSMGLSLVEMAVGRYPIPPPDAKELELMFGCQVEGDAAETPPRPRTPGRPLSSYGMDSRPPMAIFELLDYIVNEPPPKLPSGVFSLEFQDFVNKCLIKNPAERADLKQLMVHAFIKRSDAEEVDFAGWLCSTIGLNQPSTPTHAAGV
Chain of CYP3A4 (P08684 whole entry): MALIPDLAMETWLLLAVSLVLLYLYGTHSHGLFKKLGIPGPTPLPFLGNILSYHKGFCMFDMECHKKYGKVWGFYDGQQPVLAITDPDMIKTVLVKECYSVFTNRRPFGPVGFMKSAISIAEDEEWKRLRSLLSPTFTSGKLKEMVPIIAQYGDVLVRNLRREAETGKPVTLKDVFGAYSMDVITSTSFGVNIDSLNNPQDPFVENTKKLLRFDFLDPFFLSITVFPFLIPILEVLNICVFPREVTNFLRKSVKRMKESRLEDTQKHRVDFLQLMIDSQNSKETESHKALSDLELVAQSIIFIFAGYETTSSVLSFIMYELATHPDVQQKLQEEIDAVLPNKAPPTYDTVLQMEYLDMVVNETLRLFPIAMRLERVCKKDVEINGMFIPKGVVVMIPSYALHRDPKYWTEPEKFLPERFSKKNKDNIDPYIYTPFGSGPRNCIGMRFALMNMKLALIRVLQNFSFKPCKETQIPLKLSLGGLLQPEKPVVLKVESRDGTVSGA
Chain of CYP2D6 (P10635 whole entry): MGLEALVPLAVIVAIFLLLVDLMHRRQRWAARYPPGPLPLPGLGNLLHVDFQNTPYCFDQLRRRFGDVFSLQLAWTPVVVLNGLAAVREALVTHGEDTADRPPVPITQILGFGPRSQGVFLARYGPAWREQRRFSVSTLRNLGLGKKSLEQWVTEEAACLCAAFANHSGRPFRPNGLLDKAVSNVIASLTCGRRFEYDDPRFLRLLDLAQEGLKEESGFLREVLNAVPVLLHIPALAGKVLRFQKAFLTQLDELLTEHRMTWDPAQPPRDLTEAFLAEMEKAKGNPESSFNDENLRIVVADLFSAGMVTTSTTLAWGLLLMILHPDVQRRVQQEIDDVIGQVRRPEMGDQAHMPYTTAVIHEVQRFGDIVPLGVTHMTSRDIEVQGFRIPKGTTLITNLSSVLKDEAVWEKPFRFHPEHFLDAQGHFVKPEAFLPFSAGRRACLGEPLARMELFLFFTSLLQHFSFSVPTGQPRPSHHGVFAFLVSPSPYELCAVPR
Chain of Mitogen-activated protein kinase 9 (Homo sapiens) (P45984 whole entry, looked up): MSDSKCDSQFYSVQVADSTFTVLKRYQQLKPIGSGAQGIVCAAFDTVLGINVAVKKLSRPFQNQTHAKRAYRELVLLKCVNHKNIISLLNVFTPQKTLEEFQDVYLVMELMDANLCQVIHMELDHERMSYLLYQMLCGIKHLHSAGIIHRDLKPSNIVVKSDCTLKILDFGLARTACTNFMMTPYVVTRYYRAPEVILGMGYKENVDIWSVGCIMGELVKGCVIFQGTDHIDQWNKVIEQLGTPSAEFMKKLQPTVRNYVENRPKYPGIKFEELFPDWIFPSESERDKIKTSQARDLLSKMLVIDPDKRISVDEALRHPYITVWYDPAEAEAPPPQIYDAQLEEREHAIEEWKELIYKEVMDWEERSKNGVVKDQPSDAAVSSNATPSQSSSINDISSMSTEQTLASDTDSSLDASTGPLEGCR
Chain of Rho-associated protein kinase 2 (Homo sapiens) (O75116 whole entry, looked up): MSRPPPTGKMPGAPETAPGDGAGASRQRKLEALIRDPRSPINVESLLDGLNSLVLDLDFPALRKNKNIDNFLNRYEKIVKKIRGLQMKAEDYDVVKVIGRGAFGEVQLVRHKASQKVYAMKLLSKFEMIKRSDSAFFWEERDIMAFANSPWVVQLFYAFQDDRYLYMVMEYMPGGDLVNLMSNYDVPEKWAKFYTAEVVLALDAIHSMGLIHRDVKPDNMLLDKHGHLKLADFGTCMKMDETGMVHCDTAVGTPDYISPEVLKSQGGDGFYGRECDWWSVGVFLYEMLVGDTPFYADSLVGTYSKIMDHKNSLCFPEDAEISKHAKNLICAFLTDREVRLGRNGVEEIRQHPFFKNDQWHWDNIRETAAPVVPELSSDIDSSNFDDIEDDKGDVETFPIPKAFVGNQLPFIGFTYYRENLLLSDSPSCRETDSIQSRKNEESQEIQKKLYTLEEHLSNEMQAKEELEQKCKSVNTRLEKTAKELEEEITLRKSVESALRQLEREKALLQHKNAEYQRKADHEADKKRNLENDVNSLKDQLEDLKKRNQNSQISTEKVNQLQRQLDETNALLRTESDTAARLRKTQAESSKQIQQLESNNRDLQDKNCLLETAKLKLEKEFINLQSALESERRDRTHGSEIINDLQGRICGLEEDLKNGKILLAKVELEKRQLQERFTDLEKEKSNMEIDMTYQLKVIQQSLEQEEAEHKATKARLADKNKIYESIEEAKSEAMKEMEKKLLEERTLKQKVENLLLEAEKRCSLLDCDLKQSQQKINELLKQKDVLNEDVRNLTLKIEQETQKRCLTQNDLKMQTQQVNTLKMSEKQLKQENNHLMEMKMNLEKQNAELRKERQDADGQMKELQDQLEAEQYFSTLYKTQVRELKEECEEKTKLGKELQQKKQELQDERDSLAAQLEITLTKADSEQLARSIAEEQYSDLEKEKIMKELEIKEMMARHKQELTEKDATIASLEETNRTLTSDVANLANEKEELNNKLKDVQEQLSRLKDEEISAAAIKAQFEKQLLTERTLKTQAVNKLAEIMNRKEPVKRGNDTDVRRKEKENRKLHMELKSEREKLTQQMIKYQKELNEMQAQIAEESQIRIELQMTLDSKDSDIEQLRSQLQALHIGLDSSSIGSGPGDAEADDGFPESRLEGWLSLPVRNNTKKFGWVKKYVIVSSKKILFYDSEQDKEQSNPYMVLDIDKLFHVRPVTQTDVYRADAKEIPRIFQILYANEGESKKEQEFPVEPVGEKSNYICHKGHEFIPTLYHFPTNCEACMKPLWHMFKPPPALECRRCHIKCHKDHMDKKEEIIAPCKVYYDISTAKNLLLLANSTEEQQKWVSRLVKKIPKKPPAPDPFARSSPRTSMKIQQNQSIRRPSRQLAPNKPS
T2 sequence (Q16539 whole entry): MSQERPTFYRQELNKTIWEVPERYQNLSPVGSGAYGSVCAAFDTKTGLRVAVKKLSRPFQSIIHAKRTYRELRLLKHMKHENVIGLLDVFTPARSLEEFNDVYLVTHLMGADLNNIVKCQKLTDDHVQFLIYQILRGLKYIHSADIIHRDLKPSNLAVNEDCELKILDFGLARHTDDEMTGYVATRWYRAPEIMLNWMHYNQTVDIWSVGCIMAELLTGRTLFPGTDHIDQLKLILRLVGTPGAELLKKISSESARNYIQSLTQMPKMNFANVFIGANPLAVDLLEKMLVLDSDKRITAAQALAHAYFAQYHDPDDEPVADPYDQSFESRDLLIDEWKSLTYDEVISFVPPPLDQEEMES
Chain of Mitogen-activated protein kinase 10 (Homo sapiens) (P53779 whole entry): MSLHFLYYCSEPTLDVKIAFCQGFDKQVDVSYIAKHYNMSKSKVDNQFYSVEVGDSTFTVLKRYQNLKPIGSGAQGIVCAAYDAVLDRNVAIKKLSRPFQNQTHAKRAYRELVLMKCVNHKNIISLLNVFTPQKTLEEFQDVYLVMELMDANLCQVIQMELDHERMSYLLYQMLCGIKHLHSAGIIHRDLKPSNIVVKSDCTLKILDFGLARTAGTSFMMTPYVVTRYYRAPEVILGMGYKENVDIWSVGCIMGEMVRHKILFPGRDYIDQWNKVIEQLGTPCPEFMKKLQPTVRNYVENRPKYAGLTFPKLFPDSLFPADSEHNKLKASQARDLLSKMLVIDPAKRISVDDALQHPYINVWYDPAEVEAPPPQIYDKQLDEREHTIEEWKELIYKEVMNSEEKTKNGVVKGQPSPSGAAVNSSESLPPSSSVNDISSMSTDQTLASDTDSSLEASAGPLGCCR

Turning to `Clc1ccc(-c2nc(-c3ccccc3)[nH]c2-c2ccncc2)cc1`, in data set [1], half-maximal inhibition (IC50) required 48 nM.

For `CSc1nc(-c2ccc(F)cc2)c(-c2ccnc(NC3CCc4ccccc43)c2)[nH]1` (stereo not given), the figures for the IC50 (in the data set on Blood [2]; in [16]) were 2670 nM and 28 nM, respectively. Also, the inhibition was determined as 0% in the data set filed under Homo sapiens [3]; 36% in data set [4]; 28% in data set [5]; 62% in the data set listed under Homo sapiens [6]; 1% in data set [7]; 79% in data set [8]. The inhibition in data set [9] turned out to be 100%; in the data set filed under Homo sapiens [10] it was 0%; in data set [11] it was 0%; in data set [12], 12%; in data set [13] it was 0%; in [14] it was 0%. The results for the inhibition in data set [15], in [17] and in data set [18] were 26%, 98% and 0%, respectively. The inhibition at 10 µM was 68% against CYP1A2; 84% against CYP2C9; 79% at CYP2C19; 68% on CYP2D6; 76% at CYP3A4.

As for `CSc1nc(-c2ccc(F)cc2)c(-c2ccnc(NC(C)c3ccccc3)c2)[nH]1` (stereo not given), the figures for the IC50 (in the data set on Blood [2]; in the data set with Blood [19]; in data set [1]) were 4330 nM, 4330 nM and 380 nM, respectively.

As to `CSc1nc(-c2ccc(F)cc2)c(-c2ccnc(NCC3CCCO3)c2)[nH]1` (stereo not given), the figures for the IC50 (with Blood [2]; in the data set on Blood [19]; in data set [16]) were 515 nM, 250 nM and 35 nM, respectively. Besides, the inhibition in the data set listed under Homo sapiens [3] is 61%; in [4] it was 0%; in data set [5], 18%; in the data set filed under Homo sapiens [6] it was 46%; in data set [7] it was 20%; in [8] it was 86%. In addition, the inhibition in data set [9] is 96%; in the data set listed under Homo sapiens [10] it was 1%; in data set [11], 0%; in [12], 12%; in data set [13] it was 10%; in data set [14], 0%. The inhibition in data set [15] worked out at 26%; in [17], 95%; in data set [18], 8%. Moreover, the inhibition at 10 µM worked out at 70% against CYP1A2; 47% against CYP2C9; 51% against CYP2C19; 22% against CYP2D6; 52% at CYP3A4.

For `CSc1nc(-c2ccc(F)cc2)c(-c2ccncc2)[nH]1`, the figures for the IC50 (in the data set on Blood [2]; in the data set on Blood [19]; in data set [1]) were 8650 nM, 44 nM and 630 nM, respectively.

Consider `CSc1nc(-c2ccc(F)cc2)c(-c2ccnc(NC(C)CCCC(C)C)c2)[nH]1` (stereo not given), for which the IC50 in the data set on Blood [2] came out at 3990 nM; in the data set with Blood [19], 7560 nM; in [16] it was 20 nM. The inhibition in the data set filed under Homo sapiens [3] is 0%; in data set [4], 7%; in data set [5] it was 28%; in the data set filed under Homo sapiens [6] it was 86%; in data set [7], 2%; in data set [8], 91%. The inhibition in [9] was 99%; in the data set listed under Homo sapiens [10] it was 0%; in data set [11], 0%; in [12] it was 6%; in data set [13], 0%; in data set [14] it was 0%. For the same molecule, the inhibition turned out to be 47% in data set [15], 94% in [17] and 6% in data set [18]. Also, the inhibition at 10 µM on CYP1A2 turned out to be 23%; at CYP2C9, 76%; on CYP2C19, 84%; on CYP2D6 it was 66%; at CYP3A4, 71%.

In the case of `C[S+]([O-])c1ccc(CSc2nc(-c3ccc(F)cc3)c(-c3ccncc3)[nH]2)cc1` (stereo not given), the concentration for half-maximal inhibition (IC50) turned out to be 1100 nM in the data set on Blood [2], 380 nM in the data set with Blood [19] and 4 nM in data set [1].

Consider `CSc1nc(-c2ccc(F)cc2)c(-c2ccnc(NCCc3cccs3)c2)[nH]1`, for which the IC50 in the data set with Blood [2] came to 14500 nM; with Blood [19] it was 23500 nM; in data set [16], 23 nM. Moreover, the inhibition was 0% in the data set filed under Homo sapiens [3]; 53% in [4]; 46% in [5]; 72% in the data set listed under Homo sapiens [6]; 1% in [7]; 90% in data set [8]. In addition, the inhibition in data set [9] stood at 99%; in the data set listed under Homo sapiens [10], 4%; in [11], 0%; in data set [12], 1%; in data set [13], 1%; in data set [14] it was 0%. Also, the results for the inhibition in data set [15], in data set [17] and in [18] were 28%, 99% and 31%, respectively. Moreover, the inhibition at 10 µM against CYP1A2 stood at 83%; at CYP2C9, 93%; against CYP2C19 it was 94%; against CYP2D6, 88%; on CYP3A4, 89%.

`CSc1nc(-c2ccc(F)cc2)c(-c2ccnc(NC(C)c3ccccc3)c2)n1C` (stereo not given): the IC50 in the data set with Blood [2] is 3000 nM; in the data set with Blood [19] it was 4100 nM; in data set [1] it was 220 nM.

With `COCCn1c(SC)nc(-c2ccc(F)cc2)c1-c1ccnc(NC2CCCCC2)c1`, the half-maximal inhibitory concentration (IC50) in the data set with Blood [2] amounted to 3570 nM; in data set [16] it was 42 nM. Besides, the inhibition is 12% in the data set listed under Homo sapiens [3]; 0% in data set [4]; 0% in data set [5]; 85% in the data set listed under Homo sapiens [6]; 0% in data set [7]; 99% in data set [8]. For the same molecule, the inhibition stood at 89% in data set [9]; 0% in the data set filed under Homo sapiens [10]; 0% in data set [11]; 6% in [12]; 7% in data set [13]; 7% in data set [14]. The results for the inhibition in data set [15], in [17] and in data set [18] were 25%, 100% and 5%, respectively. Moreover, the inhibition at 10 µM at CYP1A2 came out at 0%; on CYP2C9 it was 73%; on CYP2C19 it was 80%; against CYP2D6 it was 54%; against CYP3A4, 81%.

In the case of `CSc1nc(-c2ccc(F)cc2)c(-c2ccnc(NC(C)CCc3ccccc3)c2)[nH]1` (stereo not given), the IC50 with Blood [2] is 350 nM; with Blood [19], 2370 nM; in data set [16] it was 13 nM. For the same molecule, the inhibition in the data set listed under Homo sapiens [3] is 0%; in [4], 19%; in [5] it was 32%; in the data set listed under Homo sapiens [6], 88%; in [7], 3%; in [8] it was 94%. Moreover, the inhibition in data set [9] worked out at 99%; in the data set filed under Homo sapiens [10], 0%; in data set [11] it was 0%; in data set [12] it was 5%; in [13] it was 0%; in [14] it was 0%. For the same molecule, the results for the inhibition in data set [15], in data set [17] and in data set [18] were 30%, 97% and 17%, respectively. Further, the inhibition at 10 µM against CYP1A2 was found to be 38%; against CYP2C9, 88%; at CYP2C19, 89%; against CYP2D6, 78%; at CYP3A4, 95%.

Take `FC(F)(F)c1cccc(-c2nc(-c3ccccc3)[nH]c2-c2ccncc2)c1`: the IC50 in data set [1] was 86 nM.
